Test results taken from US4835150A, “Cephem compounds” (Beecham Group p.l.c., priority 1985, dated 1989).

Tests used:
Assay type in all cases: cell-based
Proteus mirabilis C977 = experiment: MIC by serial dilution in Iso-Sensitest Agar, P. mirabilis C977; settings: 24 h, overnight at 37° C.
Procedure: (§1) Minimum Inhibitory Concentration (MIC) values of compounds of the invention against P. mirabilis C977, S. marcescens US 32, and P. aeruginosa K79961 were determined by serial dilution in Iso-Sensitest Agar (from Oxiod Ltd., Basinstoke, England). The plates were inoculated with […] colony forming units and incubated overnight at 37° C. The MIC values recorded in Table 1 were the lowest concentration of antibiotic to inhibit growth. Comparative data for sodium 7β[2-(3,4-diacetoxyphenyl)-2-[(4-ethyl-2,3-dioxopiperazin-1yl)carbonylamino]acetomido]-7α-formamido-3-[(2-methyl-1,3,4-thiadiazol-5yl)thiomethyl]ceph-3em-4-carboxylate (Compound A), disclosed in European Patent Application No. 82303821.1 (Publication No. 0 071 395) are also given.

[1] = test system: Serratia marcescens US 32; experiment: MIC by serial dilution in Iso-Sensitest Agar, S. marcescens US 32; settings: US32, 24 h, overnight at 37° C.
Procedure: as §1

[2] = test system: Pseudomonas aeruginosa K79961; experiment: MIC by serial dilution in Iso-Sensitest Agar, P. aeruginosa K79961; settings: 24 h, overnight at 37° C.
Procedure: as §1

Row | Structure (SMILES) | MIC (Proteus mirabilis C977) [µg/mL] | MIC [1] [µg/mL] | MIC [2] [µg/mL]
1 | CCN1CCN(C(=O)N[C@@H](C(=O)N[C@]2(NC=O)C(=O)N3C(C(=O)O)=C(CSc4nncs4)CS[C@@H]32)c2ccc(OC(C)=O)c(OC(C)=O)c2)C(=O)C1=O [Example 1, Sodium 7β-[D-2-(3,4-Diacetoxyphenyl)-2-[(4-ethyl-2,3-dioxopiperazin-1-yl)carbonylamino]acetamido]-7α-formamido-3-[(1,3,4-thiadiazol-2-yl)thiomethyl]ceph-3-em-4-carboxylate] | 1 | 0.25 | 0.25
2 | CCN1CCN(C(=O)NC(C(=O)N[C@]2(NC=O)C(=O)N3C(C(=O)O)=C(CSc4nnc(C)s4)CS[C@@H]32)c2ccc(OC(C)=O)c(OC(C)=O)c2)C(=O)C1=O (stereo partly drawn) [Compound A, sodium 7β[2-(3,4-diacetoxyphenyl)-2-[(4-ethyl-2,3-dioxopiperazin-1yl)carbonylamino]acetomido]-7α-formamido-3-[(2-methyl-1,3,4-thiadiazol-5yl)thiomethyl]ceph-3em-4-carboxylate, reference compound] | 4 | 1 | 2
3 | CCN1CCN(C(=O)N[C@@H](C(=O)N[C@]2(NC=O)C(=O)N3C(C(=O)O)=C(CSc4nncs4)CS[C@@H]32)c2ccc(O)c(O)c2)C(=O)C1=O [Example 2, Sodium 7β-[D-2-(3,4-Dihydroxyphenyl)-2-[(4-ethyl-2,3-dioxopiperazin-1-yl)carbonylamino]acetamido]-7α-formamido-3-[(1,3,4-thiadiazol-2-yl)thiomethyl]ceph-3-em-4-carboxylate] | 1 | 0.12 | 0.5
